Measurements: patent US20250161216A1, “CATIONIC LIPID ANALOGUES, COMPOSITIONS AND USES THEREOF” (GUANGZHOU LIDE BIOMEDICINE TECHNOLOGY CO., LTD., priority 2022, published 2025)

How the values were obtained:
[1] = Characterization of the lipid nanoparticles prepared in Example 6; format: physicochemical; conditions: cationic lipid analogue:cholesterol:DSPC:DMG-PEG 50:38.5:10:1.5
Text: The drug-loaded nanoparticle included a cationic lipid analogue, cholesterol, distearoylphosphatidylcholine (DSPC), and 1,2-dimyristoyl-rac-glycerol-3-methoxypolyethylene glycol (DMG-PEG), • wherein a molar ratio of the cationic lipid analogue:cholesterol:DSPC:DMG-PEG was 50:38.5:10:1.5.
In the drug-loaded nanoparticle, a mass ratio of the cationic lipid analogue to the nucleic acid drug, such as mRNA or siRNA, etc., was 11:1.
A cationic lipid analogue, cholesterol, DSPC, and DMG-PEG were dissolved in an ethanol solution, and mixed in the above-mentioned molar ratio to obtain an organic phase. Then, an mRNA nucleic acid drug at a corresponding mass ratio was dissolved in a sodium acetate buffer solution (25 mM, pH=3.0) to obtain an aqueous phase, so that a volume ratio of the aqueous phase to the organic phase was 3:1. Then, the aqueous phase was quickly added to the organic phase and mixed evenly, and the mixture was allowed to stand for 10 minutes. After that, the mixture was put into a 1000 Da dialysis bag, and dialyzed in a 1×PBS solution at 4° C. for 2 hours to obtain the nanoparticle that can be directly used for injection.

C57BL/6 mice [2] = test: In vivo expression level of Luciferase-mRNA delivered by intravenous injection (bioluminescence imaging); conditions: mRNA-loaded nanoparticles, intravenous (tail vein), 5 μg Luciferase-mRNA, 6 hours
Method in brief: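 Lipid nanoparticles carrying 5 μg Luciferase-mRNA given by tail-vein injection to 6-8-week-old C57BL/6 mice. At 6 h, 3 mg D-luciferin i.p. in PBS; bioluminescence imaged 10 min later as the expression read-out.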

C57BL/6 mice [3] = test: In vivo expression level of Luciferase-mRNA delivered by tracheal injection (bioluminescence imaging); conditions: mRNA-loaded nanoparticles, 5 μg Luciferase-mRNA, 6 hours
Procedure: (§1) Luciferase-mRNA was used as an mRNA model; and the cationic lipid analogue A1I4R22C18-2 of Example 2 was used to prepare drug-loaded nanoparticles according to the method of Example 6.
(§2) 100 μL of nanoparticles containing 5 μg Luciferase-mRNA or the drug-loaded nanoparticles prepared above were tracheally injected into 6-8 week-old C57BL/6 mice, and 200 μL of 1×PBS solution containing 3 mg D-Luciferin potassium salt was intraperitoneally injected into the mice 6 hours later. After waiting for 10 min, an in vivo mRNA expression level was evaluated by bioluminescence imaging.

C57BL/6 mice [4] = test: In vivo expression level of Luciferase-mRNA delivered by intramuscular injection (bioluminescence imaging); conditions: mRNA-loaded nanoparticles, intramuscular (leg muscle), 5 μg Luciferase-mRNA, 6 hours
Method in brief: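 LNPs prepared with cationic lipid analogues carrying 5 μg Luciferase-mRNA injected into leg muscle of 6-8 week-old C57BL/6 mice. D-Luciferin (3 mg, i.p.) given 6 h post-dose; bioluminescence imaged 10 min later as in vivo mRNA expression level.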

C57BL/6 mice [5] = test: In vivo expression level of Luciferase-mRNA delivered by intraperitoneal injection (bioluminescence imaging); conditions: mRNA-loaded nanoparticles, 5 μg Luciferase-mRNA, 6 hours
Procedure: as §1
as §2, with “200” for “100”, “intraperitoneally” for “tracheally”, “minutes,” for “min,”, “level of the m-RNA” for “level”

Diameter of the nanoparticles [1] [nm] | PDI [1] | Zeta potential [1] [mV] | encapsulation efficiency [1] [%] | SMILES | Fluorescence intensity of spleen (C57BL/6 mice [2]; compounds of Example 2) | Fluorescence intensity of spleen (C57BL/6 mice [3]) | Local fluorescence intensity (C57BL/6 mice [4]; compounds of Example 2) | Fluorescence intensity of spleen (C57BL/6 mice [5]) | Fluorescence intensity of spleen (C57BL/6 mice [2]; compounds of Example 5) | Local fluorescence intensity (C57BL/6 mice [4]; compounds of Example 5) | Bioluminescence intensity (C57BL/6 mice [2]; compounds of Example 1) | Local fluorescence intensity (C57BL/6 mice [4]; compounds of Example 1)
133 ± 6 | 0.17 | −5.5 | 62.1 | CCCCC/C=C\C/C=C\CCCCCCCC(=O)N(CCO)C(C(=O)NCCN(C)CCNC(=O)C(C(C)C)N(CCO)C(=O)CCCCCCC/C=C\C/C=C\CCCCC)C(C)C (centres unmarked) [A1I4R22C18-2] | 1.47E+06 | 2.54E+05 | 2.69E+05 | 6.48E+06 |  |  |  | 
150 ± 9 | 0.21 | −3.1 | 60.5 | CCCCC/C=C\C/C=C\CCCCCCCC(=O)N(CCN(CCN(C(=O)CCCCCCC/C=C\C/C=C\CCCCC)C(C(=O)NCC(=O)OCC)C(C)C)CCN(C(=O)CCCCCCC/C=C\C/C=C\CCCCC)C(C(=O)NCC(=O)OCC)C(C)C)C(C(=O)NCC(=O)OCC)C(C)C (centres unmarked) [A1I32R47C18-2] |  |  |  |  | 8.50E+03 | 3.68E+04 |  | 
83 ± 9 | 0.12 | −3.2 | 75.3 | CCCCC/C=C\C/C=C\CCCCCCCC(=O)N(CCCN(CC)CC)C(C(=O)NCCCCCCCCCCCCCCCCCC)C(CC)CCCC (centres unmarked) [A4I18R3C18-2] |  |  |  |  |  |  | 2.29E+07 | 3.08E+07
